Test results from patent US10364256B2 (GlaxoSmithKline Intellectual Property Development Limited, priority 2015, dated 2019).
Like-named read-outs stand apart in the source and are kept apart here.

Assays:
[1] = system: NQO1 specific enzyme activity in BEAS-2B cells (marker for NRF2 activation); experiment: BEAS-2B NQO1 MTT Assay; assay type: cell-based; conditions: compound incubated 48 hours, read-out: EC50 (NQO1 specific enzyme activity induction)
In short: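 NQO1 specific activity induction is derived from the rate of MTT reduction (ΔOD/min, 570 nm, 30 min kinetic read) in crude lysates of BEAS-2B cells exposed to compound for 48 h. A 3-parameter fit gives EC50, reported as pEC50; part of each lysate goes to Cell Titer Glo.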

[2] = biological target: T1, full length Keap1 protein / full length NRF2 protein (Homo sapiens, UniProt Q14145); experiment: NRF2-Keap1 TR-FRET Assay; assay type: binding; conditions: 25 nM Keap1-FlagHis and 50 nM biotin-NRF2 added
T1 construct: full length NRF2 protein and full length Keap1 protein (Keap1 exists a dimer) are used; His
Text: In the NRF2-Keap1 TR-FRET (time-resolved fluorescence resonance energy transfer) assay, full length NRF2 protein and full length Keap1 protein (Keap1 exists a dimer) are used. The assay detects the ability of compound to displace the binding of FlagHis-tagged Keap1 with biotinylated, Avi-tagged NRF2 protein. Biotin-NRF2 binds to streptavidin-europium (a component of the detection mix) and Keap1-FlagHis is recognized by anti-Flag APC (allophycocyanin) antibody (also a component of the detection mix). If binding occurs between the two proteins, there will be an energy transfer from the Eu+3 (donor) at 615 nm to the APC (acceptor) at 665 nm. A potential Keap1 inhibitor will cause a reduction in the TR-FRET signal by interfering with the binding of Keap1 to NRF2.
One hundred nanoliters of 100× compound dose response curves (serial 3-fold dilutions) in DMSO are stamped using an Echo liquid handling system (Labcyte) into 384-well, low volume, black assay plates (Greiner, #784076), with DMSO in columns 6 and 18. The top concentration of compound is located in columns 1 and 13. All reagents are diluted in assay buffer (50 mM Tris, pH 8.0, 5 mM MgCl2, 100 mM NaCl, 0.005% BSA, 1 mM DTT, and 2 mM CHAPS). The BSA, DTT, and CHAPS are added to the assay buffer on the day of assay. Using a Multidrop Combi (Thermo Electron Corporation) equipped with a metal tip dispenser, 5 ul of 25 nM Keap1-FlagHis protein is added to all wells of the compound plate, with the exception of the wells in column 18. Wells in column 18 receive 5 ul of assay buffer instead. Plates are centrifuged at 500 rpm for 1 minute, covered with a plate lid, and incubated at 37° C. for 2.25 hours. Plates are then removed from the incubator and allowed to cool to RT for 15 minutes. Five microliters of 50 nM biotin-NRF2 protein is then added to all wells of the plates and the plates are spun at 500 rpm for 1 minute, followed by incubating at 4° C. for 1.25 hours. The plates are then allowed to warm to RT for 15 minutes, followed by the addition of 10 ul of detection mix (1 nM Streptavidin Eu+ W1024 and 5 ug/ml mouse anti-DYKDDDDK IgG conjugated to SureLight APC antibody; both from Columbia Biosciences) to all wells. Plates are spun at 500 rpm for 1 minute, incubated for 1 hour at RT, and read on an Envision plate reader using a 320 nm excitation filter and 615 nm and 665 nm emission filters. Compound response (% inhibition) and potency (pIC50) are calculated based on the ratio of the two emissions (665 nm/615 nm) and then the transformed data is normalized against controls in the assay (control 1=1% DMSO in the presence of NRF2 and Keap1 protein and control 2=1% DMSO in the absence of protein). Data analysis is handled using the software package Abase XE (Surrey, United Kingdom). The % inhibition values are calculated from the ratio (transformed) data by the equation: 100−(100*(compound response−average control 2)/(average control 1−average control2)). For calculation of pIC50s, Abase XE uses a four parameter equation. pIC50 is the negative log of the IC50.

[3] = biological target: T2, Keap1 Kelch domain (321-609) / TAMRA-labeled 16mer NRF2 peptide (ETGE motif) (Homo sapiens, UniProt Q14145); experiment: NRF2-Keap1 FP Assay (Keap1 Kelch fluorescence polarization); assay type: binding; conditions: 20 nM Keap1 (321-609), 8 nM Tamra labeled peptide
T2 construct: the Kelch domain (321-609) of Keap1 is used
In short: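 Compound dilutions (3-fold) were incubated 1 hr at room temperature with 20 nM Keap1 Kelch (321-609) and 8 nM TAMRA-labeled ETGE 16mer peptide. Buffer was 50 mM Tris pH 8.0, 100 mM NaCl, 5 mM MgCl2, 1 mM DTT, 2 mM CHAPS, 0.005% BSA. Fluorescence polarization (mP) was normalized to controls and fitted with a four-parameter equation to give pIC50.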

[4] = biological target: T1, full length Keap1 protein / full length NRF2 protein; experiment: NRF2-Keap1 TR-FRET Low Protein Assay; assay type: binding; conditions: 1.25 nM Keap1 FlagHis and 2.5 nM biotin-NRF2 added
In short: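 Flag-tagged full-length Keap1 was preincubated with compound (3-fold series) for 2.25 h at 37 °C in Tris pH 8.0/MgCl2/NaCl/BSA/DTT/CHAPS. Biotin-Avi-NRF2 (added at 2.5 nM) was then bound for 1.25 h at 4 °C. Eu-streptavidin/anti-Flag-APC TR-FRET (665/615 nm) was read after 1 h at RT, and pIC50 came from a four-parameter fit.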

T2 sequence (Q14145 321-609): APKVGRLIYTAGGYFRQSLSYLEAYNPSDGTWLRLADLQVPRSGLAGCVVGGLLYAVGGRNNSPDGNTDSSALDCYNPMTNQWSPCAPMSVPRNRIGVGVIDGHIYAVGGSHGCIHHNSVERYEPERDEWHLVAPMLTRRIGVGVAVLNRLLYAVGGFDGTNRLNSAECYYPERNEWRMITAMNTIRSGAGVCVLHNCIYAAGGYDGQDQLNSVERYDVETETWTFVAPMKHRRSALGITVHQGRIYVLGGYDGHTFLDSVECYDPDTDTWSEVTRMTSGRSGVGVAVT
T1 sequence (Q14145 whole entry): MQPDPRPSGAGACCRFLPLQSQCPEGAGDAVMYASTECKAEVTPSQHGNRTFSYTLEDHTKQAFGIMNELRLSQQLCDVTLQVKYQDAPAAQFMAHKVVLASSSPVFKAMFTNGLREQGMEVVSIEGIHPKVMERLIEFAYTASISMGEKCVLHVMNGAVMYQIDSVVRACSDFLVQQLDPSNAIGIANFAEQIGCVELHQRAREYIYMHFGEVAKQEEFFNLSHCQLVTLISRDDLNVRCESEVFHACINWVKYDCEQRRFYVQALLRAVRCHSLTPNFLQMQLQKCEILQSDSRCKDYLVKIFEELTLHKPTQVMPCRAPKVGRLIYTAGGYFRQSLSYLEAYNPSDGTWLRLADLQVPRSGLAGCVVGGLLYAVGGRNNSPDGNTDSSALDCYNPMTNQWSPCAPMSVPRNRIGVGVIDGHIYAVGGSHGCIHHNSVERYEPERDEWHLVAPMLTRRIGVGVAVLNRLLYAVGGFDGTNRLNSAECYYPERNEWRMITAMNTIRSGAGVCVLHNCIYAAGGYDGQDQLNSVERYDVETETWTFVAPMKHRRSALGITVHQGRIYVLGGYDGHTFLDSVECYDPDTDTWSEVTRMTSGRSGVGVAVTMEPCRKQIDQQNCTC

Row | Compound | EC50 ([1]; Homo sapiens) | IC50 [2] | IC50 [3] | IC50 [4] | EC50 [1]
1 | CCCC(COc1cccc(-c2cccc(-n3ncc(C(=O)O)c3C3CC3c3cn(C)nn3)c2)c1)C1CCCCC1 (stereo not drawn) [Example 172, 1-(3′-((2-Cyclohexylpentyl)oxy)-[1,1′-biphenyl]-3-yl)-5-(2-(1-methyl-1H-1,2,3-triazol-4-yl)cyclopropyl)-1H-pyrazole-4-carboxylic acid] | 100 to 1000 nM | 1000 to 10000 nM | 100 to 1000 nM | – | –
2 | Cn1cc(C2CC2c2c(C(=O)O)cnn2-c2cccc(-c3cccc(C(O)C4CCCCC4)c3)c2)nn1 (stereo not drawn) [Example 220, 1-(3′-(Cyclohexyl(hydroxy)methyl)-[1,1′-biphenyl]-3-yl)-5-(2-(1-methyl-1H-1,2,3-triazol-4-yl)cyclopropyl)-1H-pyrazole-4-carboxylic acid] | 1000 to 10000 nM | 100 to 1000 nM | 10 to 100 nM | – | –
3 | Cn1cc(C2CC2c2c(C(=O)O)cnn2-c2cccc(-c3cccc(OCC4CCOCC4)c3)c2)nn1 (stereo not drawn) [Example 174, 5-(2-(1-Methyl-1H-1,2,3-triazol-4-yl)cyclopropyl)-1-(3′-((tetrahydro-2H-pyran-4-yl)methoxy)-[1,1′-biphenyl]-3-yl)-1H-pyrazole-4-carboxylic acid] | 1000 to 10000 nM | 100 to 1000 nM | 10 to 100 nM | – | –
4 | CN(C)C(=O)c1cccc(-c2cccc(-n3ncc(C(=O)O)c3C(F)(F)F)c2)c1F [Example 2, 1-{3-[3-(Dimethylcarbamoyl)-2-fluorophenyl]phenyl}-5-(trifluoromethyl)-1H-pyrazole-4-carboxylic Acid] | 1000 to 10000 nM | 1000 to 10000 nM | 100 to 1000 nM | – | –
5 | Cn1cc(C2CC2c2c(C(=O)O)cnn2-c2cc(C#N)cc(-c3cccc(OCC4CCCCC4)c3)c2)nn1 (stereo not drawn) [Example 189, 1-(5-cyano-3′-(cyclohexylmethoxy)-[1,1′-biphenyl]-3-yl)-5-(2-(1-methyl-1H-1,2,3-triazol-4-yl)cyclopropyl)-1H-pyrazole-4-carboxylic acid] | 1000 to 10000 nM | 10000 to 100000 nM | > 10000 nM | – | –
6 | CCOC(c1cccc(-c2cccc(-n3ncc(C(=O)O)c3C3CC3c3cn(C)nn3)c2)c1)C(C)C (stereo not drawn) [Example 182, 1-(3′-(1-Ethoxy-2-methylpropyl)-[1,1′-biphenyl]-3-yl)-5-(2-(1-methyl-1H-1,2,3-triazol-4-yl)cyclopropyl)-1H-pyrazole-4-carboxylic acid] | 100 to 1000 nM | 100 to 1000 nM | 10 to 100 nM | – | –
7 | CC[C@@H]1c2ccccc2OC(C)(C)CN1Cc1cccc(-c2cccc(-n3ncc(C(=O)O)c3[C@@H]3C[C@H]3c3cn(C)nn3)c2)c1 (single isomer, unassigned; isomer 2) [Example 125] | 1 to 10 nM | – | 10 to 100 nM | < 10 nM | –
8 | 1-(3′-((1-Ethyl-2,3-dihydro-1H-benzo[e][1,4]diazepin-4(5H)-yl)methyl)-[1,1′-biphenyl]-3-yl)-5-((1,2-trans)-2-(1-methyl-1H-1,2,3-triazol-4-yl)cyclopropyl)-1H-pyrazole-4-carboxylic Acid [Example 127] | – | – | 10 to 100 nM | 10 to 100 nM | 100 to 1000 nM
9 | C[C@H](Oc1cccc(-c2cccc(-n3ncc(C(=O)O)c3[C@@H]3C[C@H]3c3cn(C)nn3)c2)c1)C1CCCCCC1 [Example 73, 1-(3′-((S)-1-Cycloheptylethoxy)-[1,1′-biphenyl]-3-yl)-5-((1R,2R)-2-(1-methyl-1H-1,2,3-triazol-4-yl)cyclopropyl)-1H-pyrazole-4-carboxylic Acid] | 1 to 10 nM | – | 10 to 100 nM | < 10 nM | –
10 | CCOC(=O)c1cnn(-c2cccc(-c3cccc(O[C@@H](C)C4CCCCC4)c3)c2)c1[C@@H]1C[C@H]1c1cn(C)nn1 [Example 105, Ethyl 1-(3′-((S)-1-cyclohexylethoxy)-[1,1′-biphenyl]-3-yl)-5-((1R,2R)-2-(1-methyl-1H-1,2,3-triazol-4-yl)cyclopropyl)-1H-pyrazole-4-carboxylate] | < 1 nM | – | > 10000 nM | 1000 to 10000 nM | –
11 | Cc1cc([C@@H]2C[C@H]2c2c(C(=O)O)cnn2-c2cccc(-c3cccc(O[C@@H](C)C4CCCCC4)c3)c2)on1 [Example 115, 1-(3′-((S)-1-cyclohexylethoxy)-[1,1′-biphenyl]-3-yl)-5-((1R,2R)-2-(3-methylisoxazol-5-yl)cyclopropyl)-1H-pyrazole-4-carboxylic Acid] | 100 to 1000 nM | – | 100 to 1000 nM | 100 to 1000 nM | –
12 | C[C@H](Oc1cccc(-c2cccc(-n3ncc(C(=O)O)c3[C@@H]3C[C@H]3c3cn(C)nn3)c2)c1)C1CCCCC1 [Example 69, Barium 1-(3′-((S)-1-Cyclohexylethoxy)-[1,1′-biphenyl]-3-yl)-5-((1R,2R)-2-(1-methyl-1H-1,2,3-triazol-4-yl)cyclopropyl)-1H-pyrazole-4-carboxylate Hydroxide] | – | – | 1 to 10 nM | < 10 nM | < 1 nM
13 | C[C@H](Oc1cccc(-c2cccc(-n3ncc(C(=O)O)c3[C@@H]3C[C@H]3c3cn(C4CCN(C(=O)OC(C)(C)C)CC4)nn3)c2)c1)C1CCCCC1 (racemic) [Example 81, 5-(trans-2-(1-(1-(tert-Butoxycarbonyl)piperidin-4-yl)-1H-1,2,3-triazol-4-yl)cyclopropyl)-1-(3′-((S)-1-cyclohexylethoxy)-[1,1′-biphenyl]-3-yl)-1H-pyrazole-4-carboxylic acid] | 10 to 100 nM | – | 100 to 1000 nM | 100 to 1000 nM | –
14 | C[C@H](Oc1cccc(-c2cccc(-n3ncc(C(=O)O)c3[C@@H]3C[C@H]3c3cn(-c4ccccc4)nn3)c2)c1)C1CCCCC1 (racemic) [Example 92] | 1 to 10 nM | – | 10 to 100 nM | 100 to 1000 nM | –
15 | CC[C@@H]1CN(Cc2cccc(-c3cccc(-n4ncc(C(=O)O)c4[C@@H]4C[C@H]4c4cn(C)nn4)c3)c2)Cc2ccccc2O1 [Example 65, 1-(3′-(((R)-2-Ethyl-2,3-dihydrobenzo[f][1,4]oxazepin-4(5H)-yl)methyl)-[1,1′-biphenyl]-3-yl)-5-((1R,2R)-2-(1-methyl-1H-1,2,3-triazol-4-yl)cyclopropyl)-1H-pyrazole-4-carboxylic Acid] | 100 to 1000 nM | – | 10 to 100 nM | < 10 nM | –
16 | CC[C@@H]1CN(Cc2cccc(-c3cccc(-n4ncc(C(=O)O)c4[C@@H]4C[C@H]4c4cn(C)nn4)c3)c2)S(=O)(=O)c2cccnc2O1 (racemic) [Example 138, 1-(3′-(((R)-4-ethyl-1,1-dioxido-3,4-dihydro-2H-pyrido[2,3-b][1,4,5]oxathiazepin-2-yl)methyl)-[1,1′-biphenyl]-3-yl)-5-((1,2-trans)-2-(1-methyl-1H-1,2,3-triazol-4-yl)cyclopropyl)-1H-pyrazole-4-carboxylic acid] | 1000 to 10000 nM | – | 10 to 100 nM | < 10 nM | –
